Measurements: BigSolDB 2.1

## Nc1cnc(Br)cn1
In DMF, 278.15 K
  solubility (mole fraction): 0.00849
In DMF, 283.15 K
  solubility (mole fraction): 0.00942
In DMF, 288.15 K
  solubility (mole fraction): 0.0106
In DMF, 293.15 K
  solubility (mole fraction): 0.0119
In DMF, 298.15 K
  solubility (mole fraction): 0.0133
In DMF, 303.15 K
  solubility (mole fraction): 0.0149
In DMF, 308.15 K
  solubility (mole fraction): 0.0165
In DMF, 313.15 K
  solubility (mole fraction): 0.0185
In DMF, 318.15 K
  solubility (mole fraction): 0.0205
In DMF, 323.15 K
  solubility (mole fraction): 0.0227
In acetone, 278.15 K
  solubility (mole fraction): 0.00684
In acetone, 283.15 K
  solubility (mole fraction): 0.0076
In acetone, 288.15 K
  solubility (mole fraction): 0.00856
In acetone, 293.15 K
  solubility (mole fraction): 0.00961
In acetone, 298.15 K
  solubility (mole fraction): 0.0108
In acetone, 303.15 K
  solubility (mole fraction): 0.012
In acetone, 308.15 K
  solubility (mole fraction): 0.0134
In acetone, 313.15 K
  solubility (mole fraction): 0.0149
In acetone, 318.15 K
  solubility (mole fraction): 0.0165
In acetone, 323.15 K
  solubility (mole fraction): 0.0183
In ethanol, 278.15 K
  solubility (mole fraction): 0.00144
In ethanol, 283.15 K
  solubility (mole fraction): 0.00158
In ethanol, 288.15 K
  solubility (mole fraction): 0.00174
In ethanol, 293.15 K
  solubility (mole fraction): 0.00194
In ethanol, 298.15 K
  solubility (mole fraction): 0.00217
In ethanol, 303.15 K
  solubility (mole fraction): 0.00243
In ethanol, 308.15 K
  solubility (mole fraction): 0.00272
In ethanol, 313.15 K
  solubility (mole fraction): 0.00308
In ethanol, 318.15 K
  solubility (mole fraction): 0.00345
In ethanol, 323.15 K
  solubility (mole fraction): 0.0039
In ethylene glycol, 278.15 K
  solubility (mole fraction): 0.000694
In ethylene glycol, 283.15 K
  solubility (mole fraction): 0.000773
In ethylene glycol, 288.15 K
  solubility (mole fraction): 0.000869
In ethylene glycol, 293.15 K
  solubility (mole fraction): 0.00097
In ethylene glycol, 298.15 K
  solubility (mole fraction): 0.00109
In ethylene glycol, 303.15 K
  solubility (mole fraction): 0.00121
In ethylene glycol, 308.15 K
  solubility (mole fraction): 0.00135
In ethylene glycol, 313.15 K
  solubility (mole fraction): 0.00149
In ethylene glycol, 318.15 K
  solubility (mole fraction): 0.00166
In ethylene glycol, 323.15 K
  solubility (mole fraction): 0.00184
In isopropanol, 278.15 K
  solubility (mole fraction): 0.00282
In isopropanol, 283.15 K
  solubility (mole fraction): 0.00308
In isopropanol, 288.15 K
  solubility (mole fraction): 0.0034
In isopropanol, 293.15 K
  solubility (mole fraction): 0.0038
In isopropanol, 298.15 K
  solubility (mole fraction): 0.00429
In isopropanol, 303.15 K
  solubility (mole fraction): 0.00477
In isopropanol, 308.15 K
  solubility (mole fraction): 0.00531
In isopropanol, 313.15 K
  solubility (mole fraction): 0.00594
In isopropanol, 318.15 K
  solubility (mole fraction): 0.0066
In isopropanol, 323.15 K
  solubility (mole fraction): 0.00735
In methanol, 278.15 K
  solubility (mole fraction): 0.000887
In methanol, 283.15 K
  solubility (mole fraction): 0.000981
In methanol, 288.15 K
  solubility (mole fraction): 0.00108
In methanol, 293.15 K
  solubility (mole fraction): 0.00121
In methanol, 298.15 K
  solubility (mole fraction): 0.00135
In methanol, 303.15 K
  solubility (mole fraction): 0.00151
In methanol, 308.15 K
  solubility (mole fraction): 0.00167
In methanol, 313.15 K
  solubility (mole fraction): 0.00185
In methanol, 318.15 K
  solubility (mole fraction): 0.00204
In methanol, 323.15 K
  solubility (mole fraction): 0.00225
In n-butanol, 278.15 K
  solubility (mole fraction): 0.00541
In n-butanol, 283.15 K
  solubility (mole fraction): 0.00601
In n-butanol, 288.15 K
  solubility (mole fraction): 0.00678
In n-butanol, 293.15 K
  solubility (mole fraction): 0.00757
In n-butanol, 298.15 K
  solubility (mole fraction): 0.00853
In n-butanol, 303.15 K
  solubility (mole fraction): 0.00953
In n-butanol, 308.15 K
  solubility (mole fraction): 0.0106
In n-butanol, 313.15 K
  solubility (mole fraction): 0.0118
In n-butanol, 318.15 K
  solubility (mole fraction): 0.0131
In n-butanol, 323.15 K
  solubility (mole fraction): 0.0145
In n-propanol, 278.15 K
  solubility (mole fraction): 0.00353
In n-propanol, 283.15 K
  solubility (mole fraction): 0.00392
In n-propanol, 288.15 K
  solubility (mole fraction): 0.00445
In n-propanol, 293.15 K
  solubility (mole fraction): 0.00497
In n-propanol, 298.15 K
  solubility (mole fraction): 0.00563
In n-propanol, 303.15 K
  solubility (mole fraction): 0.00625
In n-propanol, 308.15 K
  solubility (mole fraction): 0.00696
In n-propanol, 313.15 K
  solubility (mole fraction): 0.00774
In n-propanol, 318.15 K
  solubility (mole fraction): 0.00858
In n-propanol, 323.15 K
  solubility (mole fraction): 0.0095
In propylene glycol, 278.15 K
  solubility (mole fraction): 0.00113
In propylene glycol, 283.15 K
  solubility (mole fraction): 0.00125
In propylene glycol, 288.15 K
  solubility (mole fraction): 0.00139
In propylene glycol, 293.15 K
  solubility (mole fraction): 0.00153
In propylene glycol, 298.15 K
  solubility (mole fraction): 0.00173
In propylene glycol, 303.15 K
  solubility (mole fraction): 0.00192
In propylene glycol, 308.15 K
  solubility (mole fraction): 0.00216
In propylene glycol, 313.15 K
  solubility (mole fraction): 0.00239
In propylene glycol, 318.15 K
  solubility (mole fraction): 0.00266
In propylene glycol, 323.15 K
  solubility (mole fraction): 0.00294
In water, 278.15 K
  solubility (mole fraction): 1.76e-05
In water, 283.15 K
  solubility (mole fraction): 1.93e-05
In water, 288.15 K
  solubility (mole fraction): 2.18e-05
In water, 293.15 K
  solubility (mole fraction): 2.43e-05
In water, 298.15 K
  solubility (mole fraction): 2.73e-05
In water, 303.15 K
  solubility (mole fraction): 3.08e-05
In water, 308.15 K
  solubility (mole fraction): 3.42e-05
In water, 313.15 K
  solubility (mole fraction): 3.83e-05
In water, 318.15 K
  solubility (mole fraction): 4.27e-05
In water, 323.15 K
  solubility (mole fraction): 4.77e-05
